Values joined by “and” are separate entries in the source; they are usually repeats but may differ in a detail not shown here. Equal entries are not always repeated.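 A five-concentration, 48-hour dose response in 96-well plates underlies each endpoint, interpolated linearly between surrounding concentrations. The concentration for 50% growth inhibition is given as GI50. TGI: total growth inhibition.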
Assays:
Test in all cases: growth of human tumour cells (NCI), 48 h
UO-31 renal = test system: UO-31 renal
UACC-257 melanoma = test system: UACC-257 melanoma
MOLT-4 leukemia = test system: MOLT-4 leukemia
NCI-H226 lung = test system: NCI-H226 lung
T-47D breast = test system: T-47D breast
HCT-116 colon = test system: HCT-116 colon
DU-145 prostate = test system: DU-145 prostate
ACHN renal = test system: ACHN renal
HCC-2998 colon = test system: HCC-2998 colon
HT29 colon = test system: HT29 colon

| SMILES | GI50 (UO-31 renal) | TGI (UO-31 renal) | GI50 (UACC-257 melanoma) | TGI (UACC-257 melanoma) | GI50 (MOLT-4 leukemia) [µM] | TGI (MOLT-4 leukemia) [µM] | GI50 (NCI-H226 lung) | TGI (NCI-H226 lung) [µM] | GI50 (T-47D breast) | TGI (T-47D breast) | GI50 (HCT-116 colon) | TGI (HCT-116 colon) [µM] | GI50 (DU-145 prostate) | TGI (DU-145 prostate) [µM] | GI50 (ACHN renal) | TGI (ACHN renal) [µM] | GI50 (HCC-2998 colon) | TGI (HCC-2998 colon) [µM] | GI50 (HT29 colon) | TGI (HT29 colon) [µM] |
| --- | --- | --- | --- | --- | --- | --- | --- | --- | --- | --- | --- | --- | --- | --- | --- | --- | --- | --- | --- | --- |
| S=C(Nc1ccc(Br)cc1)Nc1ccc(Br)cc1 | 12.7 µM | > 100 µM | 7.86 µM | > 100 µM | 6.59 | > 100 | > 100 µM | > 100 | 2.99 µM | > 100 µM | 4.21 µM | > 100 | 6.41 µM | > 100 | 4.25 µM | > 100 | 5.04 µM | > 100 | 7.22 µM | > 100 |
| O=c1c(Oc2ccc(F)cc2F)cc2cnc(NC3CCOCC3)nc2n1CCCO | > 11.3 µM | > 21.1 µM | > 25 µM | > 25 µM | > 25 | > 25 | > 25 µM | > 25 | > 25 µM | > 25 µM | > 25 µM | > 25 | > 25 µM | > 25 | > 25 µM | > 25 | > 25 µM | > 25 | > 25 µM | > 25 |
| Cc1cc(=O)oc2cc(OC(=O)N(C)C)c(Cl)cc12 |  | > 100 µM |  | > 100 µM |  | > 100 |  | > 100 |  | > 100 µM |  | > 100 |  | > 100 |  | > 100 |  | > 100 |  | > 100 |
| CC(=O)OCC1OC(n2c(-c3ccc(Cl)cc3)ccc(C#N)c2=S)C(OC(C)=O)C(OC(C)=O)C1OC(C)=O (configuration not stated) |  | > 100 µM |  | > 100 µM |  | > 100 |  | > 100 |  | > 100 µM |  | > 100 |  | > 100 |  | > 100 |  | > 100 |  | > 100 |
| CCCNNC(=O)/C=C/c1ccc(CNCCc2c(C)[nH]c3ccccc23)cc1 | 0.0593 µM | 0.601 µM | 0.0323 µM | 0.627 µM | 0.0152 | 4.09 | 0.0291 µM | 0.131 | 0.00852 µM | 0.0624 µM | 0.00887 µM | 0.324 | 0.0322 µM | 3.35 | 0.0284 µM | 0.116 | 0.0449 µM | 0.115 | 0.0123 µM | 1.53 |
| COc1ccc(C(=O)/C=C/c2ccc(C)cc2)cc1OC | 11 µM | 26.8 µM | 16.2 µM | 30.3 µM | 16.6 | 47.2 | 13.5 µM | 31.5 | 3.05 µM | 15.8 µM | 4.69 µM | 17.7 | 3.2 µM | 14.4 | 14.2 µM | 28.1 | 14.4 µM | 27.4 | 3.93 µM | 15.3 |
| CC[N+](CC)=c1sc2c(s1)C(c1ccc(Cl)cc1)Oc1ccc(Cl)cc1-2 (configuration not stated) | 2.82 µM | 15.4 µM | 2.33 µM | 5.46 µM | 2.16 | 6.41 | 5.56 µM | 33.1 | 1.67 µM | 6.39 µM | 0.568 µM | 1.89 | 3.32 µM | 10.6 | 11.3 µM | 23.9 | 1.52 µM | 3.74 | 2.2 µM | 5.07 |
| Oc1[nH]c2ccccc2c1N=Nc1ccccn1 |  | 33.7 µM |  | > 100 µM |  | > 100 |  | 61.7 |  | > 100 µM |  | 25.2 |  | > 100 |  | 23 |  | 82.8 |  | 55.5 |
| C#CCOc1cccc(-c2ncnc3cc(NC(=O)CCl)ccc23)c1 | 0.36 µM | 2.1 µM | 1.64 µM | 5.19 µM | 0.043 | > 100 | 1.42 µM | 5.54 | 1.69 µM | 5.02 µM | 0.034 µM | 1.48 | 1.16 µM | 2.47 | 0.419 µM | 2.06 | 1.09 µM | 2.75 | 0.0502 µM | 1.49 |
| Cc1cc(S(=O)(=O)Nc2nc3cscc3c(=O)n2Cc2ccccc2)c(S)cc1Cl | 51.8 µM | > 100 µM | > 100 µM | > 100 µM | 3.94 | 32.5 | 60.1 µM | > 100 | 4.53 µM | 90.8 µM | 27.5 µM | > 100 | 41 µM | > 100 | 52.6 µM | > 100 | 18.9 µM | 68.5 | 47.9 µM | > 100 |
| COC(=O)CCc1c[nH]c2ccc(N(CCCl)CCCl)cc12 | 4.81 µM | > 42.6 µM | 5.21 µM | 34.3 µM | 0.826 | > 100 | 1.53 µM | 41 | 1.16 µM | 16.4 µM | 2.18 µM | > 58.9 | 2.27 µM | > 100 | 0.383 µM |  | 8.33 µM | 27.1 | 2.3 µM | 44.7 |
| C=C1C(=O)O[C@@H]2C[C@@H](C)[C@@H]3C=CC(=O)[C@@]3(C)[C@@H](OC(=O)CC(=O)O[C@H]3[C@@H]4C(=C)C(=O)O[C@@H]4C[C@@H](C)[C@@H]4C=CC(=O)[C@]43C)[C@H]12 |  | 0.271 µM |  | 0.0812 µM |  | < 0.0304 |  | 0.3 |  | 2.73 µM |  | 0.0398 |  | 12.9 |  | 0.189 |  | 0.303 |  | 0.223 |
| CCc1cccc(C)c1NC(=O)c1sc2nc3c(cc2c1N)CCCCC3 | 6.08 µM | > 100 µM | 18.2 µM | > 100 µM | 4.56 | > 100 | 14.5 µM | > 100 | 4.65 µM | > 100 µM | 3.58 µM | > 100 | 3.28 µM | > 100 | 7.45 µM | > 100 | 12.4 µM | 85.8 | 3.26 µM | 24.7 |
| FC(F)c1nc2ccccc2n1-c1nc(N2CCOCC2)nc(N2CCOCC2)n1 | 0.046 µM and 0.103 µM | 0.835 µM and 1.38 µM | 0.264 µM and 0.25 µM | 3.09 µM and 3.64 µM | 0.347 | > 100 | 0.249 µM and 0.452 µM |  | 0.0502 µM and 0.11 µM | 0.388 µM and 0.565 µM | 0.618 µM and 0.734 µM | > 100 | 0.42 µM and 0.432 µM | > 100 | 0.299 µM and 0.397 µM | > 100 | 0.497 µM and 0.807 µM |  | 0.238 µM and 0.37 µM | > 100 |

Reference: PubChem BioAssay (NCI)
